Source: article PMC2267855, “Site-directed mutagenesis of Arginine282 suggests how protons and peptides are co-transported by rabbit PepT1” (The International Journal of Biochemistry & Cell Biology, 2008)
Residue numbers refer to the chain shown, from its start. Values belong to the compound of their own block, whether it stands above or below them.

How the values were obtained:
[1] = target: T1, wild-type PepT1 (Oryctolagus cuniculus, UniProt P36836); assay: Diethylpyrocarbonate inhibition of PepT1-mediated dipeptide uptake and protection by substrates; format: cell-based, rabbit; details: for protection of PepT1 from DEPC inhibition: 5 mM present during 1 mM DEPC incubation (15 min), uptake measured over 1 h
T1 construct: expressed in transfected cells; host or cells: Xenopus laevis oocytes injected with cRNA
T1 sequence (P36836 1-707): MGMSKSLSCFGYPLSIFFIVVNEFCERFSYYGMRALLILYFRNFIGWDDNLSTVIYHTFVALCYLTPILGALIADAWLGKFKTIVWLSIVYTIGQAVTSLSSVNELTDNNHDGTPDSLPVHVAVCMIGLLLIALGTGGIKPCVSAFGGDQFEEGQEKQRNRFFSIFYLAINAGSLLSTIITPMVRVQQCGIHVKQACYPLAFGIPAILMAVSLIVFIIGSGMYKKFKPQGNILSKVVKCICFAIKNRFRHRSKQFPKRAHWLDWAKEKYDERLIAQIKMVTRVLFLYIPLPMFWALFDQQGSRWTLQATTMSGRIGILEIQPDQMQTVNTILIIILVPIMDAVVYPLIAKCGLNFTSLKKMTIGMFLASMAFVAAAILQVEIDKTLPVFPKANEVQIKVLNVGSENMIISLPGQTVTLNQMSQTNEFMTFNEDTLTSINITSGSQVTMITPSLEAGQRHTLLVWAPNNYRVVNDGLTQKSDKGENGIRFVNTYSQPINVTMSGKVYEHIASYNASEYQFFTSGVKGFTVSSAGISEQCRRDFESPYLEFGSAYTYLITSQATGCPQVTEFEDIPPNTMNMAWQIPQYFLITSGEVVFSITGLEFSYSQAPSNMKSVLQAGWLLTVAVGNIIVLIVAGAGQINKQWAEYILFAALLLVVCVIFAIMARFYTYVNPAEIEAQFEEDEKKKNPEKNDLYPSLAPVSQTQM
Experimental: (§1) Zero-trans uptake of [^3H]-D-Phe-L-Gln (17.4 Ci/mmole, custom synthesised, Cambridge Research Biochemicals, Stockton-on-Tees, UK) was performed as previously described ([Meredith, 2004]). Briefly, 5 oocytes were incubated in 100 μl of uptake medium (95 mM NaCl, 2 mM KCl, 1 mM CaCl2, 0.42 mM MgCl2, 10 mM Tris/Hepes pH 7.4 or Tris/Mes pH 5.5) with tracer (0.4 μM) [^3H]-D-Phe-L-Gln. After incubation, the oocytes were washed sequentially five times in 1 ml of ice-cold 120 mM NaCl solution, lysed individually with 100 μl 2% (w/v) SDS and liquid scintillation counted. As a control non-injected oocytes were also incubated in uptake medium with [^3H]-D-Phe-L-Gln as above.
Diethylpyrocarbonate (DEPC) inhibition of PepT1 was performed using a similar protocol to that of [Terada, Saito, and Inui (1998)]. Briefly, PepT1 oocytes were preincubated with 1 mM DEPC for 15 min at pHout 5.5 in the absence or presence of the PepT1 substrates Gly-L-Gln, N-Acetyl-Phe ([Meredith et al., 2000]), and L-Ala-Tyramine (custom synthesised) and the non-substrate Tyr (all 5 mM). The oocytes were then washed in uptake medium before uptake assays were performed as detailed above.

[2] = target: T1, wild-type PepT1; assay: Membrane potential of oocytes expressing wild-type PepT1 (single microelectrode); format: cell-based, rabbit; details: 10 mM, pHout 5.5, 1 min
Experimental: (§2) Measurements of membrane potential were made by impaling oocytes with a single glass microelectrode (Intra 767 amplifier, WPI, Stevenage, Hertfordshire, UK) perfused in uptake medium (as above) with or without 0.4 μM D-Phe-L-Gln (synthesised in house), 0.6 mM Gly-L-Gln (Sigma, Poole, UK) or 10 mM 4-aminobenzoic acid (4-AMBA, Sigma). Two-electrode voltage clamp (TEVC) was performed by placing oocytes in a 0.1 ml recording chamber and perfusing with uptake solution (pH 5.5 or 7.4) at a rate of 15 ml/min. Oocytes were impaled by two agarose-cushioned microelectrodes filled with 3 M KCl (0.5–2.0 MΩ) and voltage-clamped at −60 mV using a Geneclamp 500B amplifier and PCLAMP 8.1 software (Axon Instruments, CA, USA). The holding potential was stepped from −60 mV over the range of −150 to +50 mV in 10 mV steps, each pulse lasting 100 ms, and returning to −60 mV in between test voltage pulses. Typically traces were filtered at 1 kHz during recording and digitized at 0.5–5 kHz using the DigiData 1200 interface (Axon Instruments, CA, USA). All experiments were carried out at room temperature.

[3] = target: T2, R282E-PepT1 (Oryctolagus cuniculus, UniProt P36836, R282E); assay: Membrane potential of oocytes expressing R282E-PepT1 (single microelectrode); format: cell-based, rabbit; details: 10 mM, pHout 5.5, 1 min
T2 construct: expressed in transfected cells; host or cells: Xenopus laevis oocytes injected with cRNA
T2 sequence (P36836 1-707 R282E): T1 sequence (P36836 1-707) with R282E
Experimental: as §2

[4] = target: T3, wild-type rabbit PepT1 (Oryctolagus cuniculus, UniProt P36836); assay: Inhibition of [3H]-D-Phe-L-Gln uptake into Xenopus oocytes expressing wild-type PepT1 (competition, Ki); format: cell-based; details: PepT1, data not shown; read-out: Ki (PepT1 substrate)
T3 construct: expressed in transfected cells; host or cells: Xenopus laevis oocytes injected with cRNA
T3 sequence (P36836 1-707): T1 sequence (P36836 1-707)
Experimental: as §1
The affinity of wild-type and mutant PepT1 were assessed by competition studies with 0.4 μM [^3H]-D-Phe-L-Gln and Gly-L-Gln present in the uptake medium in concentrations from 0 to 2 mM using the protocol above, and the Ki calculated using the method of [Deves and Boyd (1989)].

SMILES: CC(=O)NC(Cc1ccccc1)C(=O)O (stereo not shown) [N-Acetyl-Phe]
protection of PepT1 from DEPC inhibition [1]: largely prevented

SMILES: Nc1ccc(C(=O)O)cc1 [4-AMBA, 4-aminobenzoic acid]
membrane potential depolarisation [2]: failed to induce a depolarisation
membrane potential depolarisation [3]: failed to induce a depolarisation

SMILES: C[C@H](N)C(=O)NCCc1ccc(O)cc1 [L-Ala-Tyramine]
Ki [4]: ~100 µM
protection of PepT1 from DEPC inhibition [1]: only partially prevented

The next lines start with the values.

inhibition of PepT1 mediated dipeptide uptake ([1]; 1 mM, 15 min preincubation, pHout 5.5, uptake measured over 1 h): completely inhibited
SMILES: CCOC(=O)OC(=O)OCC [DEPC, Diethylpyrocarbonate]

protection of PepT1 from DEPC inhibition [1]: not
SMILES: N[C@@H](Cc1ccc(O)cc1)C(=O)O [Tyr]
